The values that follow are results of earlier work, collected in patent US20070259053A1, “Inhibition of nephrotoxicity induced by Trasylol® and like agents” (priority 2006, published 2007).

For series [1], the system named is renal accumulation of lysozyme. The settings on record: microinfusion experiments.
The subject of series [2] is gentamicin induced renal toxic effects.
Series [3] has as its system isolated renal brush border membranes. The settings on record: for effect on binding of gentamicin to isolated renal brush border membranes: isolated BBM.
The next series has as its system BBM. The following applies: for effect on binding of albumins of increased isoelectric points to BBM: b13: pH 6.5, pI 8.5 albumins.
Series [4] has as its system renal accumulation of gentamicin.
A further series concerns kidney. The settings on record: noted by autoradiography.
Series [5] has as its system toxic effects of spermine and gentamicin.
Series [6] deals with mercury induced acute renal failure. The following applies: in vivo.
The subject of series [7] is renal toxic effects of cisplatin. The settings on record: rat.
For series [8] the test system is unchanged. The following applies: bird.

Where two headings read alike, the source gives them in different places.

Regarding `NCCCC[C@H](N)C(=O)O` [lysine], the “effect on renal accumulation of lysozyme” value in [1] is on record as “inhibited”. In addition, in [2] (given with gentamicin), the “effect with the renal toxic effects of gentamicin” value was “additive effect”.

Turning to `[Ca+2]` [calcium], the “effect on binding of gentamicin to isolated renal brush border membranes” value (shortened to “effect on binding of gentamicin”) in series [3] was “competitive inhibitor”. The “effect on binding of lysozyme to BBM” value with BBM is given as “decreased”; with BBM (listed as Ca^++), “inhibited”. For the same compound, the “effect on binding of albumins of increased isoelectric points to BBM” value is recorded as “decreased” in the series with BBM and “inhibited” in the series with BBM (listed as Ca^++).

With `N.N.[Cl][Pt][Cl]` [cisplatin], in the series with vesicles of BBM, the “effect on transport of N′-methylnicotinamide into vesicles of BBM” value is “inhibited” and the “effect on transport of tetraethylamonium (TEA) into vesicles of BBM” value is on record as “inhibited”. Further, in the series with mouse kidney, the “effect on uptake of TEA” value is recorded as “inhibited” and the “effect on uptake of p-aminohipputate” value is “inhibited”.

In the case of `C[n+]1cccc(C(N)=O)c1` [N′-methylnicotinamide], in series [4] (rats), the “effect on renal accumulation of gentamicin” value was “inhibited” and the “effect on urinary excretion of gentamicin” value is “increased”.

In the case of aprotinin, the “time after administration at which level peaked in the kidney” value with kidney was 72 h. Further, the “effect on binding of gentamicin” value in series [3] is reported as “inhibited”. Besides, the “effect on renal absorption of gentamicin” value in series [4] (in vivo) is “did not unambiguously inhibit”.

Consider `NCCCNCCCCNCCCN` [spermine], for which the “effect on uptake of gentamicin by renal tubular BBM” value in [3] (renal tubular BBM) was “inhibited”. The “effect on renal accumulation of lysozyme” value in series [1] is reported as “inhibited”.

As to tetralysine, in series [4] (rat renal cortex), the “effect on uptake of gentamicin in rat renal cortex” value was “inhibited”.

In the case of `Cc1ncc(COP(=O)(O)O)c(C=O)c1O` [pyridoxal 5′-phsophate, pyridoxal 5′-phosphate], in series [5] (in vivo), the “effect on toxic effects of gentamicin” value is given as “inhibited”. Moreover, the “effect on toxic effects of spermine” value in series [5] (positively charged renal toxin spermine) is “inhibited”.

As for polylycine, the “effect on binding of gentamicin” value in [3] is “inhibited”. The “effect on acute toxic effects of whole animal nephrotoxicity (gentamicin)” value in series [2] (whole animal) is reported as “lessened”.

`N=C(N)NCCC[C@H](N)C(=O)O` [L-arginine]: in [1], the “effect on renal accumulation of lysozyme” value was “inhibited”.

In the case of cytochrome C, the “effect on renal accumulation of lysozyme” value in series [1] was “inhibited”.

For `[Cd]` [cadmium], in series [4] (cadmium treated animals), the “effect on gentamicin accumulation in the renal cortex” value is recorded as “reduced”.

Consider `Clc1cccc(Cl)c1N=C1NCCN1` [Clonidine], for which the “effect on mercury induced acute renal failure” value in series [6] is “protected”. Besides, the “effect on gentamicin induced renal toxic effects” value in series [2] (rat kidney) is reported as “inhibited”.

For ribonuclease, in series [1], the “effect on renal accumulation of lysozyme” value was “inhibited”.

As for `C=C[C@H]1C[N@@]2CC[C@H]1C[C@H]2[C@H](O)c1ccnc2ccc(OC)cc12` [quinine], the “effect on renal toxic effects of cisplatin” value in series [7] and in series [8] was “provided protection” each time.

As for Myoglobin, the “effect on renal accumulation of lysozyme” value in series [1] is “without effect”.
